Experimental data taken from the NIST ThermoML archive (doi:10.1021/je1012789).
± gives the expanded uncertainty stated by the source.

Assay: mn = molality of the nth substance listed, in mol/kg
Details: 101 kPa, Liquid

[Br-].[K+] [potassium bromide] + O
Details | mass density [kg/m3] | speed of sound [m/s] | viscosity [mPa·s]
293.15 K, m1 = 0.2 | 1015.19 ± 0.3 | 1487 ± 1.6 | 0.985 ± 0.025
293.15 K, m1 = 0.3 | 1023.34 ± 0.32 | 1488.9 ± 1.6 | 0.975 ± 0.025
293.15 K, m1 = 0.4 | 1031.61 ± 0.33 | 1490.9 ± 1.6 | 0.97 ± 0.024
293.15 K, m1 = 0.5 | 1039.7 ± 0.35 | 1492.8 ± 1.6 | 0.97 ± 0.024
293.15 K, m1 = 0.6 | 1047.69 ± 0.36 | 1493.4 ± 1.6 | 0.95 ± 0.024
293.15 K, m1 = 0.7 | 1055.7 ± 0.38 | 1497.1 ± 1.6 | 0.936 ± 0.024
298.15 K, m1 = 0.2 | 1013.8 ± 0.3 | 1500.6 ± 1.6 | 0.873 ± 0.022
298.15 K, m1 = 0.3 | 1022.08 ± 0.32 | 1503.2 ± 1.6 | 0.863 ± 0.022
298.15 K, m1 = 0.4 | 1030.17 ± 0.33 | 1504 ± 1.6 | 0.86 ± 0.022
298.15 K, m1 = 0.5 | 1038.34 ± 0.34 | 1506.5 ± 1.6 | 0.857 ± 0.022
298.15 K, m1 = 0.6 | 1046.11 ± 0.36 | 1506 ± 1.6 | 0.846 ± 0.022
298.15 K, m1 = 0.7 | 1054.22 ± 0.37 | 1509.1 ± 1.6 | 0.832 ± 0.021
303.15 K, m1 = 0.2 | 1012.3 ± 0.3 | 1512.5 ± 1.6 | 0.782 ± 0.02
303.15 K, m1 = 0.3 | 1020.51 ± 0.31 | 1514.2 ± 1.6 | 0.772 ± 0.02
303.15 K, m1 = 0.4 | 1028.56 ± 0.33 | 1516 ± 1.6 | 0.769 ± 0.02
303.15 K, m1 = 0.5 | 1036.79 ± 0.34 | 1517.2 ± 1.6 | 0.765 ± 0.02
303.15 K, m1 = 0.6 | 1044.6 ± 0.35 | 1517.9 ± 1.6 | 0.76 ± 0.02
303.15 K, m1 = 0.7 | 1052.52 ± 0.37 | 1520.4 ± 1.6 | 0.74 ± 0.019
308.15 K, m1 = 0.2 | 1010.63 ± 0.3 | 1523.4 ± 1.6 | 0.698 ± 0.018
308.15 K, m1 = 0.3 | 1018.9 ± 0.31 | 1524.6 ± 1.6 | 0.688 ± 0.018
308.15 K, m1 = 0.4 | 1026.73 ± 0.32 | 1526.4 ± 1.6 | 0.682 ± 0.018
308.15 K, m1 = 0.5 | 1035 ± 0.34 | 1527.7 ± 1.6 | 0.678 ± 0.018
308.15 K, m1 = 0.6 | 1042.99 ± 0.35 | 1527.8 ± 1.6 | 0.674 ± 0.018
308.15 K, m1 = 0.7 | 1050.61 ± 0.36 | 1529.6 ± 1.6 | 0.664 ± 0.018
313.15 K, m1 = 0.2 | 1008.74 ± 0.29 | 1532.3 ± 1.6 | 0.622 ± 0.017
313.15 K, m1 = 0.3 | 1016.99 ± 0.31 | 1532.8 ± 1.6 | 0.612 ± 0.017
313.15 K, m1 = 0.4 | 1024.78 ± 0.32 | 1534.7 ± 1.6 | 0.608 ± 0.017
313.15 K, m1 = 0.5 | 1032.88 ± 0.33 | 1535.5 ± 1.6 | 0.605 ± 0.016
313.15 K, m1 = 0.6 | 1041.01 ± 0.35 | 1535.9 ± 1.6 | 0.602 ± 0.016
313.15 K, m1 = 0.7 | 1048.62 ± 0.36 | 1538.1 ± 1.6 | 0.595 ± 0.016

O=[N+]([O-])[O-].[K+] [potassium nitrate] + O
Details | mass density [kg/m3] | speed of sound [m/s] | viscosity [mPa·s]
293.15 K, m1 = 0.2 | 1010.62 ± 0.29 | 1490.7 ± 1.6 | 0.98 ± 0.025
293.15 K, m1 = 0.3 | 1016.69 ± 0.3 | 1493.5 ± 1.6 | 0.977 ± 0.025
293.15 K, m1 = 0.4 | 1022.68 ± 0.31 | 1497.4 ± 1.6 | 0.973 ± 0.024
293.15 K, m1 = 0.5 | 1028.6 ± 0.32 | 1501 ± 1.6 | 0.97 ± 0.024
293.15 K, m1 = 0.6 | 1034.61 ± 0.33 | 1504.4 ± 1.6 | 0.967 ± 0.024
293.15 K, m1 = 0.7 | 1040.37 ± 0.34 | 1507.6 ± 1.6 | 0.963 ± 0.024
298.15 K, m1 = 0.2 | 1009.41 ± 0.29 | 1504 ± 1.6 | 0.871 ± 0.022
298.15 K, m1 = 0.3 | 1015.47 ± 0.3 | 1507 ± 1.6 | 0.869 ± 0.022
298.15 K, m1 = 0.4 | 1021.25 ± 0.31 | 1510.1 ± 1.6 | 0.867 ± 0.022
298.15 K, m1 = 0.5 | 1027.13 ± 0.32 | 1513.4 ± 1.6 | 0.862 ± 0.022
298.15 K, m1 = 0.6 | 1032.84 ± 0.33 | 1517 ± 1.6 | 0.862 ± 0.022
298.15 K, m1 = 0.7 | 1038.56 ± 0.34 | 1520 ± 1.6 | 0.859 ± 0.022
303.15 K, m1 = 0.2 | 1007.8 ± 0.29 | 1515.6 ± 1.6 | 0.778 ± 0.02
303.15 K, m1 = 0.3 | 1013.82 ± 0.3 | 1518.7 ± 1.6 | 0.776 ± 0.02
303.15 K, m1 = 0.4 | 1019.62 ± 0.31 | 1522 ± 1.6 | 0.775 ± 0.02
303.15 K, m1 = 0.5 | 1025.4 ± 0.32 | 1524.7 ± 1.6 | 0.774 ± 0.02
303.15 K, m1 = 0.6 | 1031.2 ± 0.33 | 1528.4 ± 1.6 | 0.773 ± 0.02
303.15 K, m1 = 0.7 | 1036.79 ± 0.33 | 1530.9 ± 1.6 | 0.772 ± 0.02
308.15 K, m1 = 0.2 | 1006.09 ± 0.28 | 1526 ± 1.6 | 0.672 ± 0.018
308.15 K, m1 = 0.3 | 1011.97 ± 0.29 | 1528.8 ± 1.6 | 0.67 ± 0.018
308.15 K, m1 = 0.4 | 1017.79 ± 0.3 | 1531.4 ± 1.6 | 0.669 ± 0.018
308.15 K, m1 = 0.5 | 1023.58 ± 0.31 | 1534.3 ± 1.6 | 0.678 ± 0.018
308.15 K, m1 = 0.6 | 1029.21 ± 0.32 | 1536.8 ± 1.6 | 0.666 ± 0.018
308.15 K, m1 = 0.7 | 1034.87 ± 0.33 | 1539.4 ± 1.6 | 0.665 ± 0.018
313.15 K, m1 = 0.2 | 1004.28 ± 0.28 | 1534.6 ± 1.6 | 0.595 ± 0.016
313.15 K, m1 = 0.3 | 1009.98 ± 0.29 | 1537.5 ± 1.6 | 0.593 ± 0.016
313.15 K, m1 = 0.4 | 1015.89 ± 0.3 | 1539.7 ± 1.6 | 0.585 ± 0.016
313.15 K, m1 = 0.5 | 1021.56 ± 0.31 | 1542.5 ± 1.6 | 0.577 ± 0.016
313.15 K, m1 = 0.6 | 1027.23 ± 0.32 | 1544.8 ± 1.6 | 0.569 ± 0.016
313.15 K, m1 = 0.7 | 1032.76 ± 0.33 | 1547.7 ± 1.6 | 0.563 ± 0.016
